Measurements published in ChEMBL document CHEMBL6182942, “Discovery of a Selective, Novel TGF-βR1 Inhibitor GFH018 for the Treatment of Solid Tumors” (J Med Chem, 2025).
The source made the active and inactive calls. The rule behind the calls is not given here.

How the values were obtained:
[1] = target: Mitogen-activated protein kinase 14 (Homo sapiens, UniProt Q16539); assay: Inhibition of p38alpha (unknown origin) measured after 40 mins in presence of [gamma-33P]ATP by microbeta liquid scintillation counting analysis; format: toxicity
[2] = Apparent permeability across apical to basolateral side in dog MDCK-MDR1 cells at 2 uM measured over 150 mins by LC-MS/MS analysis; format: ADME, cell-based, Canis lupus familiaris
[3] = Volume of distribution at steady state in CD-1 mouse at 1 mg/kg, iv by LC-MS/MS analysis; format: ADME, organism-based; conditions: in vivo, read-out: Vdss
[4] = Cmax in CD-1 mouse at 5 mg/kg, po via gavage by LC-MS/MS analysis; format: ADME, organism-based; conditions: in vivo
[5] = Oral bioavailability in CD-1 mouse at 5 mg/kg via gavage by LC-MS/MS analysis; format: ADME, organism-based; conditions: in vivo
[6] = AUC (0 to last) in CD-1 mouse at 75 mg/kg, po via gavage by LC-MS/MS analysis; format: ADME, organism-based; conditions: in vivo
[7] = Oral bioavailability in CD-1 mouse at 75 mg/kg via gavage by LC-MS/MS analysis; format: ADME, organism-based; conditions: in vivo
TGF-beta receptor type-1 = target: T1, TGF-beta receptor type-1 (Homo sapiens, UniProt P36897); assay: Inhibition of human TGFbetaR1 expressed in HEK293 cells co-expressing SBE assessed as reduction in TGFbeta/activin A-induced SMAD phosphorylation preincubated for 4 to 5 hrs followed by TGFbeta/activin A stimulation and measured after 18 hrs by luciferase reporter gene assay; format: cell-based
T1 sequence (P36897 whole entry): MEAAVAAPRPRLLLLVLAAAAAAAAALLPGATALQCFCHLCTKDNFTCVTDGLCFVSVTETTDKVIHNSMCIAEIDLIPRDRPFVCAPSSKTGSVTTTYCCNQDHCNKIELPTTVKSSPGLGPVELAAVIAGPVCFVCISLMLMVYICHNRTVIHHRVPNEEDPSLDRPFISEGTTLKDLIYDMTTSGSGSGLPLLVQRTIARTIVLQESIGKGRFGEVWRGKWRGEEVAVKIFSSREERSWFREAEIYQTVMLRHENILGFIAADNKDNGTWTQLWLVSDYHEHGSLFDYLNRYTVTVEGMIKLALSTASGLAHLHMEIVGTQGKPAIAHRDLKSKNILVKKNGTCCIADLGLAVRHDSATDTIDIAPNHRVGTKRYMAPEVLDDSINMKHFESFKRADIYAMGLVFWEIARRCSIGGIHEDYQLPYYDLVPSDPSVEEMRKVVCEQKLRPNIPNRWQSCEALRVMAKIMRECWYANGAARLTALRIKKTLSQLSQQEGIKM

[8] = Lipophilicity, log D of the compound; format: physicochemical; conditions: octanol/water
[9] = Intrinsic clearance in human hepatocytes at 1 uM measured after 90 mins by LC-MS/MS analysis; format: ADME, cell-based, Hepatocyte; conditions: read-out: CLH
[10] = Protein binding in mouse plasma at 0.2 to 10 uM measured after 4 hrs by equilibrium dialysis based LC-MS/MS analysis; format: ADME, cell-free; conditions: dose 0.2-10 µM, read-out: PPB (converted)
[11] = Protein binding in Sprague-Dawley rat plasma at 0.2 to 10 uM measured after 4 hrs by equilibrium dialysis based LC-MS/MS analysis; format: ADME, cell-free; conditions: dose 0.2-10 µM, read-out: PPB (converted)
[12] = Protein binding in Beagle dog plasma at 0.2 to 10 uM measured after 4 hrs by equilibrium dialysis based LC-MS/MS analysis; format: ADME, cell-free, Canis lupus familiaris; conditions: dose 0.2-10 µM, read-out: PPB (converted)
Cytochrome P450 2B6 = Cytochrome P450 2B6 (Homo sapiens, UniProt P20813); assay: Inhibition of CYP2B6 in human liver microsomes using bupropion as substrate preincubated for 10 mins followed by NADPH regeneration system addition and measured after 10 mins by LC-MS/MS analysis; format: ADME, Microsome
Cytochrome P450 2C8 = Cytochrome P450 2C8 (Homo sapiens, UniProt P10632); assay: Inhibition of CYP2C8 in human liver microsomes using amodiaquine as substrate preincubated for 10 mins followed by NADPH regeneration system addition and measured after 10 mins by LC-MS/MS analysis; format: ADME, Microsome
Cytochrome P450 2C19 = Cytochrome P450 2C19 (Homo sapiens, UniProt P33261); assay: Inhibition of CYP2C19 in human liver microsomes using (S)-mephenytoin as substrate preincubated for 10 mins followed by NADPH regeneration system addition and measured after 20 mins by LC-MS/MS analysis; format: ADME, Microsome
Cytochrome P450 2D6 = Cytochrome P450 2D6 (Homo sapiens, UniProt P10635); assay: Inhibition of CYP2D6 in human liver microsomes using dextromethorphan as substrate preincubated for 10 mins followed by NADPH regeneration system addition and measured after 20 mins by LC-MS/MS analysis; format: ADME, Microsome
Cytochrome P450 3A4 = Cytochrome P450 3A4 (Homo sapiens, UniProt P08684); assay: Inhibition of CYP3A4 in human liver microsomes using midazolam as substrate preincubated for 10 mins followed by NADPH regeneration system addition and measured after 3 mins by LC-MS/MS analysis; format: ADME, Microsome
[13] = Volume of distribution at steady state in Sprague-Dawley rat at 1 mg/kg, iv by LC-MS/MS analysis; format: ADME, organism-based; conditions: in vivo, read-out: Vdss
[14] = Volume of distribution at steady state in Beagle dog at 1 mg/kg, iv by LC-MS/MS analysis; format: ADME, organism-based, Canis lupus familiaris; conditions: in vivo, read-out: Vdss
[15] = Half life in Beagle dog at 5 mg/kg, po by LC-MS/MS analysis; format: ADME, organism-based, Canis lupus familiaris; conditions: in vivo
H22 = assay: Antitumor activity against mouse H22 cells implanted in BALB/c mouse assessed as tumor growth inhibition at 50 mg/kg, po administered twice daily for 11 days and measured 3 times per week during compound dosing relative to control; format: functional; conditions: H22, 264 h, time 11 day, read-out: TGI
[16] = Toxicity in mouse CT26 cell implanted BALB/c mouse assessed as change in body weight at 50 mg/kg, po administered twice daily in presence of antimouse-PD-L1 antibody; format: organism-based; conditions: in vivo
4T1-Luc = assay: Antimetastatic activity against mouse 4T1-Luc cells implanted in BALB/c mouse assessed as reduction in metastatic rate in intestine at 100 mg/kg, po administered daily for 32 days and measured on day 30 to 35 by IVIS fluorescence analysis; format: functional, organism-based; conditions: time 35.0 day
T-cell = assay: Immunostimulatory activity in TGFbeta/anti-CD3 stimulated BALB/c mouse naive T cells assessed as reduction in Treg induction at 0.1 to 10 uM measured after 4 days by immunostaining based flow cytometry; format: functional; conditions: dose 0.1-10 µM, time 4.0 day
CD14-positive cell [17] = assay: (§1) Immunostimulatory activity in human PBMC derived M-CSF stimulated CD14-positive cells assessed as increase in TNFalpha level at 0.1 to 10 uM supplemented with fresh medium containing compound on day 1, 3 and 5 followed by M-CSF/IL-4/IL-13 stimulation for 2 days with subsequent LPS induction and measured after 16 hrs; format: functional, cell-based; conditions: dose 0.1-10 µM, time 7.0 day
CD14-positive cell [18] = assay: as §1, with “IL-6” for “TNFalpha”; format: functional, cell-based; conditions: dose 0.1-10 µM, time 7.0 day
[19] = Drug metabolism in mouse liver microsomes; format: ADME, Microsome
[20] = Drug metabolism in human hepatocytes; format: ADME, cell-based, Hepatocyte
[21] = Drug metabolism in rat hepatocytes; format: ADME, cell-based, Hepatocyte
[22] = target: TRAF2 and NCK-interacting protein kinase (Homo sapiens) (UniProt Q9UKE5); assay: Inhibition of TNIK (unknown origin) assessed as residual activity at 1 uM relative to control
[23] = Mutagenicity in Salmonella typhimurium TA100 in presence of liver S9 fraction by Ames test; format: toxicity, subcellular; conditions: salmonella enterica subsp. enterica serovar typhimurium

Chain of Cytochrome P450 3A4 (P08684 whole entry): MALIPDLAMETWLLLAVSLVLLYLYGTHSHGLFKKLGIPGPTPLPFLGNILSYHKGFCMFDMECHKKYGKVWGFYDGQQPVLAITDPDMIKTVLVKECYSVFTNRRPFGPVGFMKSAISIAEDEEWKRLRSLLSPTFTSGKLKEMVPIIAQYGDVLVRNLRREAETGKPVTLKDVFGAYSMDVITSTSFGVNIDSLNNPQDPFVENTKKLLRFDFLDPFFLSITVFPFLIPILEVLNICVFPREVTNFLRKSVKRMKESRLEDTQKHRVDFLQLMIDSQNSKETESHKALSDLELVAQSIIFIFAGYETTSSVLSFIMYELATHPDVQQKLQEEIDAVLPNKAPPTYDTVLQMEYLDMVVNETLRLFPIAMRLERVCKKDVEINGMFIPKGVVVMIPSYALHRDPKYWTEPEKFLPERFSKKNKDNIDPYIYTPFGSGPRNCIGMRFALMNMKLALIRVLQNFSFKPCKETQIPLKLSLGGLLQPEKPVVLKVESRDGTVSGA
Chain of Cytochrome P450 2C19 (P33261 whole entry): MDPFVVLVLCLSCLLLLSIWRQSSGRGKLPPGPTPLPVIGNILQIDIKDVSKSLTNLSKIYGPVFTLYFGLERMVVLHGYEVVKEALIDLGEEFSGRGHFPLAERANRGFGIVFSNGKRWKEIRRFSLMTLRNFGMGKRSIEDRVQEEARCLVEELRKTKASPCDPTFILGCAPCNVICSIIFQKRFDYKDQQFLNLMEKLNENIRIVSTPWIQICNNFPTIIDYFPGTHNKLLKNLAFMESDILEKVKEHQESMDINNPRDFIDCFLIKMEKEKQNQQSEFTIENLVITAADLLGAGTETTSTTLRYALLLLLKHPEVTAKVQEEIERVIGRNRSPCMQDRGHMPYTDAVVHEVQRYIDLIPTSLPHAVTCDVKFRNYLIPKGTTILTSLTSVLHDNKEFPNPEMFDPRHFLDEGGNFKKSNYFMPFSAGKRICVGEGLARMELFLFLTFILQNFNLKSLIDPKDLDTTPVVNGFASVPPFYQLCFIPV
Chain of TRAF2 and NCK-interacting protein kinase (Homo sapiens) (Q9UKE5 whole entry, looked up): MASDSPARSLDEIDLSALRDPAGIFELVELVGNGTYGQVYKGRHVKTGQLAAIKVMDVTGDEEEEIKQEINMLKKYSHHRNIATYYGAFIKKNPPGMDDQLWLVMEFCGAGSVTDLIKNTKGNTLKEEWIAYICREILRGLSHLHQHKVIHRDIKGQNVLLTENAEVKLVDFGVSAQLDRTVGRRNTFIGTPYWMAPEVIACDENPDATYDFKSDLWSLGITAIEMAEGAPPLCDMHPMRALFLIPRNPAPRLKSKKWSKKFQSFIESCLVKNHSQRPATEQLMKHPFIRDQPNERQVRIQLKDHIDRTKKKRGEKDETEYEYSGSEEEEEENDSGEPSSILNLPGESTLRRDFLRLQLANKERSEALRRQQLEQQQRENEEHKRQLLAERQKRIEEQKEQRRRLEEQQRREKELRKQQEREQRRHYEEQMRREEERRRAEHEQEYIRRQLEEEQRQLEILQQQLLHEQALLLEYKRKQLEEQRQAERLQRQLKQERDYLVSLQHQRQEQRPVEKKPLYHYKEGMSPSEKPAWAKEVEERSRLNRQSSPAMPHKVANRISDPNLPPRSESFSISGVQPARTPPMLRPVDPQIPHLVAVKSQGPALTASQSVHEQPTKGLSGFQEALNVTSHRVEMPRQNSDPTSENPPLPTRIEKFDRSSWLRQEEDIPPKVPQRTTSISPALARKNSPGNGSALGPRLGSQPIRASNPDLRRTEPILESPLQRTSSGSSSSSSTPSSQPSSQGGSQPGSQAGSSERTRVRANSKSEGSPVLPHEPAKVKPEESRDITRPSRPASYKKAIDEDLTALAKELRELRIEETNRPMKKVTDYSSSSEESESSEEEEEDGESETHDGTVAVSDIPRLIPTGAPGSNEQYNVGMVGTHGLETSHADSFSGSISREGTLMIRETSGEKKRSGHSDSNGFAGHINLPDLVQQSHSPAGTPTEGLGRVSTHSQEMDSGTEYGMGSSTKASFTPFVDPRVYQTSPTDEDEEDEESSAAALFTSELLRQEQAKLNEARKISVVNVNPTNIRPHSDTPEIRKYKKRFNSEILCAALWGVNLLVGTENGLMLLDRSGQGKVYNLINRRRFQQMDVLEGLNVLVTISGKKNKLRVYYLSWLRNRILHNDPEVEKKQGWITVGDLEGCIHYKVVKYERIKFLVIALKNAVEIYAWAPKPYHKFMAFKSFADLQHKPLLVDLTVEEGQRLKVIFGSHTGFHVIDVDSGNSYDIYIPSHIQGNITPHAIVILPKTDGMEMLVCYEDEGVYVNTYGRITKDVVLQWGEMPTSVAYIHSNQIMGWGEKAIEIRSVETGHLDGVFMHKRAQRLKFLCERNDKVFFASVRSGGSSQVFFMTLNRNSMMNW
Chain of Cytochrome P450 2D6 (P10635 whole entry): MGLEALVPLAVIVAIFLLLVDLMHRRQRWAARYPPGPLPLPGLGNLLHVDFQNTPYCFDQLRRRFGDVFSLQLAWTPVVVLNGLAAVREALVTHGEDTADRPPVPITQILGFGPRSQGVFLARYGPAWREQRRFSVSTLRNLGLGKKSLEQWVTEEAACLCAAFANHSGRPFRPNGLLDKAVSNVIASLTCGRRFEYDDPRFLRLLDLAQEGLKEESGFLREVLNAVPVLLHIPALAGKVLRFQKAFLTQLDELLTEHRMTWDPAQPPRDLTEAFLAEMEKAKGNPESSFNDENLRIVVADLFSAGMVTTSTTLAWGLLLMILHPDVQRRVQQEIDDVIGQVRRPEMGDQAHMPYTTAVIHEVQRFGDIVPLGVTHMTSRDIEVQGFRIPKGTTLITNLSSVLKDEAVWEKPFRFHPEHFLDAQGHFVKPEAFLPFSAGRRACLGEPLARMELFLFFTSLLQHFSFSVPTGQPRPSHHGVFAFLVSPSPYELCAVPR
Chain of Mitogen-activated protein kinase 14 (Q16539 whole entry): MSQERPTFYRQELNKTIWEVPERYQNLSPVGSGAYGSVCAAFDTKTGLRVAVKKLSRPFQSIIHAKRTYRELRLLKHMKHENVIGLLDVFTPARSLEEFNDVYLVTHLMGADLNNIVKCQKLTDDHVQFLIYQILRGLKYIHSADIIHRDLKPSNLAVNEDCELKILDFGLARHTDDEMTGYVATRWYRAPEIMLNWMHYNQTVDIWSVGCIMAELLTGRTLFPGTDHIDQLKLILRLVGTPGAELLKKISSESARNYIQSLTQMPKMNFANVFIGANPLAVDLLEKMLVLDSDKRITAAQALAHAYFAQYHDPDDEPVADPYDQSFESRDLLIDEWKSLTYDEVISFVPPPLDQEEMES
Chain of Cytochrome P450 2C8 (P10632 whole entry): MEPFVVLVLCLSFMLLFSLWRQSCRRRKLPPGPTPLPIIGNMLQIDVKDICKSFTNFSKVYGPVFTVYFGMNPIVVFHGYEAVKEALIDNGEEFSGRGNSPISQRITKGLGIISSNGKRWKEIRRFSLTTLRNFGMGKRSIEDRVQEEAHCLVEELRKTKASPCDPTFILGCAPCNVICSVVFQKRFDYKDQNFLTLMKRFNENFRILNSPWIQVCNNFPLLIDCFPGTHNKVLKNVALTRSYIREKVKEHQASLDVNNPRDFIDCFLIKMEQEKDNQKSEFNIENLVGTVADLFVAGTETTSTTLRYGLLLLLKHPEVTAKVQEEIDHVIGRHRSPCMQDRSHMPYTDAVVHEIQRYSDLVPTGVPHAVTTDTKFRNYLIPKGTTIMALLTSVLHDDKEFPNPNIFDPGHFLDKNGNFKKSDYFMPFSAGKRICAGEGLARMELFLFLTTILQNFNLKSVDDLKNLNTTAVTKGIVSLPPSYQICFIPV
Chain of Cytochrome P450 2B6 (P20813 whole entry): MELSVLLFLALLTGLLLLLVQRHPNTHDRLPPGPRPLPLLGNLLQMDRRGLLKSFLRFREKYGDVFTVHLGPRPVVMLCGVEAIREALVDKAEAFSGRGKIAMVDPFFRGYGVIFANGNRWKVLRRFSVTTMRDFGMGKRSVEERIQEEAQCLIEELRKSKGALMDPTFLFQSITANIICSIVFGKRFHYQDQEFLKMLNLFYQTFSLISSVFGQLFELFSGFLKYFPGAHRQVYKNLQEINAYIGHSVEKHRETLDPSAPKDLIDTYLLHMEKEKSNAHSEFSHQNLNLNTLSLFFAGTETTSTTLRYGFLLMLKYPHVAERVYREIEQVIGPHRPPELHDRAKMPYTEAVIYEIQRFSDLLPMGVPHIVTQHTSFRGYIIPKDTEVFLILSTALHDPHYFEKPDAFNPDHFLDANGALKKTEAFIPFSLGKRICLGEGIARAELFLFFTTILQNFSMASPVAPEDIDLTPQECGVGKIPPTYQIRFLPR

For `Cc1cccc(-c2nn3c(c2-c2ccc4ncnn4c2/C=C/C(N)=O)CCC3)n1`, the IC50 [1] was 2.65 µM, the Papp A→B at 2.5 h, 2 µM [2] was 0.39 ×10⁻⁶ cm/s and the Vd [3] was 1.4 L/kg. For the same compound, the Cmax [4] was 355 nM/ml, the bioavailability [5] was 8.74% and the AUClast [6] was 18137 nM.hr/ml. For the same compound, the bioavailability [7] was 36.8%, the IC50 (TGF-beta receptor type-1) was 0.105 µM and the logD [8] was 1.36. For the same compound, the CLint scaled at […], 1 µM [9] was < 6.9 mL/min/kg, the fraction unbound at 4 h, up to 10 µM [10] was 0.554 and the fraction unbound at 4 h, up to 10 µM [11] was 0.376. The fraction unbound at 4 h, up to 10 µM [12] was 0.476, the IC50 (Cytochrome P450 2B6) was > 100 µM and the IC50 (Cytochrome P450 2C8) was > 100 µM. The IC50 (Cytochrome P450 2C19) was > 100 µM, the IC50 (Cytochrome P450 2D6) was > 100 µM and the IC50 (Cytochrome P450 3A4) was > 100 µM. The Vd [13] was 1.44 L/kg, the Vd [14] was 0.961 L/kg and the half-life [15] was 2.83 h. For the same compound, the inhibition in vivo at 50 mg/kg (H22) was 57.5%, the Activity [16] was “Non-toxic” and the Activity (4T1-Luc) was “Active”. The Activity (T-cell) was “Active”, the Activity (CD14-positive cell [17]) was “Active” and the Activity (CD14-positive cell [18]) was “Active”. For the same compound, the Drug metabolism [19] was “metabolite_detected”, the Drug metabolism [20] was “metabolite_detected” and the Drug metabolism [21] was “metabolite_detected”. The Activity [22] was < 50% and the Activity [23] was “Non-toxic”.
